According to ChEMBL document CHEMBL3885881, “DrugMatrix”:

Organism: Rattus norvegicus
Experiment: DrugMatrix - Regimen: Daily Repeat
Type: toxicity, organism-based, Sprague-Dawley
Set-up: regimen Daily Repeat, gender Male, age 6-8 weeks
Conditions: in vivo, po, […], route oral GAVAGE, dose 0.83 mg/Kg, dose level Low, vehicle .5 % CMC; for ABSOLUTE BASOPHIL / ABSOLUTE EOSINOPHIL / ABSOLUTE LYMPHOCYTE / ABSOLUTE MONOCYTE / ABSOLUTE SEGMENTED NEUTROPHIL / BASOPHIL / EOSINOPHIL / ERYTHROCYTE COUNT / HEMATOCRIT / HEMOGLOBIN / LEUKOCYTE COUNT / LYMPHOCYTE / MEAN CORPUSCULAR HEMOGLOBIN / MEAN CORPUSCULAR HEMOGLOBIN CONCENTRATION / MEAN CORPUSCULAR VOLUME / MONOCYTE / NEUTROPHIL / NUCLEATED RED BLOOD CELLS / PLATELET COUNT: tissue Blood; for ALANINE AMINOTRANSFERASE / ALBUMIN / ALKALINE PHOSPHATASE / ASPARTATE AMINOTRANSFERASE / BLOOD UREA NITROGEN / CARBON DIOXIDE / CHLORIDE / CHOLESTEROL / CREATINE PHOSPHOKINASE / CREATININE / GLUCOSE / LACTATE DEHYDROGENASE / LIPASE / PHOSPHORUS / POTASSIUM / SODIUM / TOTAL BILIRUBIN / TOTAL PROTEIN / URIC ACID: tissue Plasma

Question: Which “ABSOLUTE BASOPHIL” value (72 h, time 3 day) does the source give for `C[C@]12CC[C@@H]3c4ccc(O)cc4CC[C@H]3[C@@H]1C[C@@H](O)[C@@H]2O` [ESTRIOL] here?
Answer: 0 CELLS/uL

Question: What about the “ABSOLUTE EOSINOPHIL” value (72 h, time 3 day) of the same compound?
Answer: 41 CELLS/uL

Question: What about the “ABSOLUTE LYMPHOCYTE” value (72 h, time 3 day) of the same compound?
Answer: 11813.33 CELLS/uL

Question: What about the “ABSOLUTE MONOCYTE” value (72 h, time 3 day) of the same compound?
Answer: 115.33 CELLS/uL

Question: And the “ABSOLUTE SEGMENTED NEUTROPHIL” value (72 h, time 3 day)?
Answer: 930.33 CELLS/uL

Question: And the BASOPHIL (72 h, time 3 day)?
Answer: 0%

Question: And the EOSINOPHIL (72 h, time 3 day)?
Answer: 0.33%

Question: And the “ERYTHROCYTE COUNT” value (72 h, time 3 day)?
Answer: 5.37 x10E6/uL

Question: What about the HEMATOCRIT (72 h, time 3 day) of the same compound?
Answer: 33.8%

Question: What about the HEMOGLOBIN (72 h, time 3 day) of the same compound?
Answer: 13.17 G/DL

Question: And the “LEUKOCYTE COUNT” value (72 h, time 3 day)?
Answer: 12.9 x10E3/uL

Question: And the LYMPHOCYTE (72 h, time 3 day)?
Answer: 91.33%

Question: And the “MEAN CORPUSCULAR HEMOGLOBIN” value (72 h, time 3 day)?
Answer: 24.53 pg

Question: And the “MEAN CORPUSCULAR HEMOGLOBIN CONCENTRATION” value (72 h, time 3 day)?
Answer: 38.97 G/DL

Question: What about the “MEAN CORPUSCULAR VOLUME” value (72 h, time 3 day) of the same compound?
Answer: 62.9 fL

Question: What about the MONOCYTE (72 h, time 3 day) of the same compound?
Answer: 1%

Question: What about the NEUTROPHIL (72 h, time 3 day) of the same compound?
Answer: 7.33%

Question: And the “NUCLEATED RED BLOOD CELLS” value (72 h, time 3 day)?
Answer: 0 /100WBC

Question: And the “PLATELET COUNT” value (72 h, time 3 day)?
Answer: 1229.33 x10E3/uL

Question: And the “ALANINE AMINOTRANSFERASE” value (72 h, time 3 day)?
Answer: 41.67 u/L

Question: What about the ALBUMIN (72 h, time 3 day) of the same compound?
Answer: 4.13 G/DL

Question: What about the “ALKALINE PHOSPHATASE” value (72 h, time 3 day) of the same compound?
Answer: 500 u/L

Question: What about the “ASPARTATE AMINOTRANSFERASE” value (72 h, time 3 day) of the same compound?
Answer: 89.33 u/L

Question: What about the “BLOOD UREA NITROGEN” value (72 h, time 3 day) of the same compound?
Answer: 17.67 mg/dL

Question: And the “CARBON DIOXIDE” value (72 h, time 3 day)?
Answer: 23.67 mmol/L

Question: What about the CHLORIDE (72 h, time 3 day) of the same compound?
Answer: 103.67 MEQ/L

Question: What about the CHOLESTEROL (72 h, time 3 day) of the same compound?
Answer: 36 mg/dL

Question: What about the “CREATINE PHOSPHOKINASE” value (72 h, time 3 day) of the same compound?
Answer: 654.33 u/L

Question: What about the CREATININE (72 h, time 3 day) of the same compound?
Answer: 0.23 mg/dL

Question: What about the GLUCOSE (72 h, time 3 day) of the same compound?
Answer: 162 mg/dL

Question: And the “LACTATE DEHYDROGENASE” value (72 h, time 3 day)?
Answer: 616.67 u/L

Question: And the LIPASE (72 h, time 3 day)?
Answer: 10.67 u/L

Question: And the PHOSPHORUS (72 h, time 3 day)?
Answer: 11.97 mg/dL

Question: What about the POTASSIUM (72 h, time 3 day) of the same compound?
Answer: 6.03 MEQ/L

Question: What about the SODIUM (72 h, time 3 day) of the same compound?
Answer: 144.8 MEQ/L

Question: What about the “TOTAL BILIRUBIN” value (72 h, time 3 day) of the same compound?
Answer: 0.17 mg/dL

Question: And the “TOTAL PROTEIN” value (72 h, time 3 day)?
Answer: 6 G/DL

Question: What about the “URIC ACID” value (72 h, time 3 day) of the same compound?
Answer: 1.6 mg/dL

Question: And the “ABSOLUTE BASOPHIL” value (120 h, time 5 day)?
Answer: 0 CELLS/uL

Question: What about the “ABSOLUTE EOSINOPHIL” value (120 h, time 5 day) of the same compound?
Answer: 0 CELLS/uL

Question: What about the “ABSOLUTE LYMPHOCYTE” value (120 h, time 5 day) of the same compound?
Answer: 12894 CELLS/uL

Question: What about the “ABSOLUTE MONOCYTE” value (120 h, time 5 day) of the same compound?
Answer: 233.33 CELLS/uL

Question: What about the “ABSOLUTE SEGMENTED NEUTROPHIL” value (120 h, time 5 day) of the same compound?
Answer: 972.67 CELLS/uL

Question: And the BASOPHIL (120 h, time 5 day)?
Answer: 0%

Question: What about the EOSINOPHIL (120 h, time 5 day) of the same compound?
Answer: 0%

Question: What about the “ERYTHROCYTE COUNT” value (120 h, time 5 day) of the same compound?
Answer: 5.98 x10E6/uL

Question: And the HEMATOCRIT (120 h, time 5 day)?
Answer: 36.97%

Question: What about the HEMOGLOBIN (120 h, time 5 day) of the same compound?
Answer: 13.8 G/DL

Question: And the “LEUKOCYTE COUNT” value (120 h, time 5 day)?
Answer: 14.1 x10E3/uL

Question: What about the LYMPHOCYTE (120 h, time 5 day) of the same compound?
Answer: 91.33%

Question: And the “MEAN CORPUSCULAR HEMOGLOBIN” value (120 h, time 5 day)?
Answer: 23.07 pg

Question: And the “MEAN CORPUSCULAR HEMOGLOBIN CONCENTRATION” value (120 h, time 5 day)?
Answer: 37.33 G/DL

Question: What about the “MEAN CORPUSCULAR VOLUME” value (120 h, time 5 day) of the same compound?
Answer: 61.87 fL

Question: What about the MONOCYTE (120 h, time 5 day) of the same compound?
Answer: 1.67%

Question: What about the NEUTROPHIL (120 h, time 5 day) of the same compound?
Answer: 7%

Question: What about the “NUCLEATED RED BLOOD CELLS” value (120 h, time 5 day) of the same compound?
Answer: 0 /100WBC

Question: What about the “PLATELET COUNT” value (120 h, time 5 day) of the same compound?
Answer: 1068.67 x10E3/uL

Question: And the “ALANINE AMINOTRANSFERASE” value (120 h, time 5 day)?
Answer: 43.67 u/L

Question: And the ALBUMIN (120 h, time 5 day)?
Answer: 4.23 G/DL

Question: What about the “ALKALINE PHOSPHATASE” value (120 h, time 5 day) of the same compound?
Answer: 477 u/L

Question: And the “ASPARTATE AMINOTRANSFERASE” value (120 h, time 5 day)?
Answer: 80.33 u/L

Question: And the “BLOOD UREA NITROGEN” value (120 h, time 5 day)?
Answer: 17.33 mg/dL

Question: And the “CARBON DIOXIDE” value (120 h, time 5 day)?
Answer: 26.33 mmol/L

Question: What about the CHLORIDE (120 h, time 5 day) of the same compound?
Answer: 101.67 MEQ/L

Question: And the CHOLESTEROL (120 h, time 5 day)?
Answer: 36.33 mg/dL

Question: And the “CREATINE PHOSPHOKINASE” value (120 h, time 5 day)?
Answer: 414 u/L

Question: And the CREATININE (120 h, time 5 day)?
Answer: 0.19 mg/dL

Question: And the GLUCOSE (120 h, time 5 day)?
Answer: 148.33 mg/dL

Question: And the “LACTATE DEHYDROGENASE” value (120 h, time 5 day)?
Answer: 577 u/L

Question: What about the LIPASE (120 h, time 5 day) of the same compound?
Answer: 8.33 u/L

Question: What about the PHOSPHORUS (120 h, time 5 day) of the same compound?
Answer: 10.9 mg/dL

Question: What about the POTASSIUM (120 h, time 5 day) of the same compound?
Answer: 6.26 MEQ/L

Question: And the SODIUM (120 h, time 5 day)?
Answer: 144.2 MEQ/L

Question: And the “TOTAL BILIRUBIN” value (120 h, time 5 day)?
Answer: 0.23 mg/dL

Question: What about the “TOTAL PROTEIN” value (120 h, time 5 day) of the same compound?
Answer: 6.3 G/DL

Question: What about the “URIC ACID” value (120 h, time 5 day) of the same compound?
Answer: 1.63 mg/dL
